In ChEMBL document CHEMBL4811226, “Species Prioritization Based on Spectral Dissimilarity: A Case Study of Polyporoid Fungal Species” (J Nat Prod, 2021):
Active and inactive are the calls of the source. The rule behind the calls is not given here.

What follows are compounds tested on HCT-116 (assay: Cytotoxicity against human HCT-116 cells assessed as reduction in cell viability measured after 48 hrs by MTS assay). Conditions: not given.
Format: functional, cell-based
For `C=C1CC[C@H]2[C@](C)(COC(=O)[C@@H](CC(=O)O)[C@@H](OC[C@H]3C(=C)CC[C@H]4[C@](C)(CO)CCC[C@]34C)C(=O)OC)CCC[C@]2(C)[C@H]1CO[C@@H](C(=O)OC)[C@H](CC(=O)O)C(=O)OC(C)C`, the Activity was “inactive”. With `C=C1CC[C@H]2[C@@]3(C)CCC[C@]2(C)[C@H]1CO[C@@H](C(=O)OC)[C@H](CC(=O)O)C(=O)OC[C@]1(C)CCC[C@]2(C)[C@@H](CO[C@@H](C(=O)OC)[C@H](CC(=O)O)C(=O)OC3)C(=C)CC[C@@H]12` the Activity was “inactive”. `C=C1CC[C@H]2[C@@]3(C)CCC[C@]2(C)[C@H]1CO[C@@H](C(=O)OC)[C@H](CC(=O)O)C(=O)OC[C@]1(C)CCC[C@]2(C)[C@@H](CO[C@@H](C(=O)OC)[C@H](CC(=O)OC)C(=O)OC3)C(=C)CC[C@@H]12` was tested, and the Activity was “inactive”. For `C=C1CC[C@H]2[C@](C)(COC(=O)[C@@H](CC(=O)OC)[C@@H](OC[C@H]3C(=C)CC[C@H]4[C@](C)(CO)CCC[C@]34C)C(=O)OC)CCC[C@]2(C)[C@H]1CO[C@@H](C(=O)OC)[C@H](CC(=O)OC)C(=O)OC`, the Activity was “inactive”. For `C=C1CC[C@H]2C(C)(C)CCC[C@]2(C)[C@H]1CO[C@@H](C(=O)OC)[C@H](CC(=O)OC)C(=O)OC`, the Activity was “inactive”. For `C=C1CC[C@H]2[C@](C)(COC(=O)[C@@H](CC(=O)O)[C@@H](OC[C@H]3C(=C)CC[C@H]4[C@](C)(COC(=O)[C@@H](CC(=O)O)[C@@H](OC[C@H]5C(=C)CC[C@H]6[C@](C)(CO)CCC[C@]56C)C(=O)OC)CCC[C@]34C)C(=O)OC)CCC[C@]2(C)[C@H]1CO[C@@H](C(=O)OC)[C@H](CC(=O)OC)C(=O)O`, the Activity was “inactive”. In the case of `C=C1CC[C@H]2[C@](C)(COC(=O)[C@@H](CC(=O)O)[C@@H](OC[C@H]3C(=C)CC[C@H]4[C@](C)(CO)CCC[C@]34C)C(=O)OC)CCC[C@]2(C)[C@H]1CO[C@@H](C(=O)OC)[C@H](CC(=O)O)C(=O)OC`, the Activity is reported as “inactive”.

Same assay, conditions: HCT-116, 48 h
For `C=C1CC[C@H]2[C@](C)(COC(=O)[C@@H](CC(=O)OC)[C@@H](OC[C@H]3C(=C)CC[C@H]4[C@](C)(CO)CCC[C@]34C)C(=O)OC)CCC[C@]2(C)[C@H]1CO[C@@H](C(=O)OC)[C@H](CC(=O)O)C(=O)OC`, the IC50 was 3.6 µM. `C=C1CC[C@H]2[C@](C)(COC(=O)[C@@H](CC(=O)O)[C@@H](OC[C@H]3C(=C)CC[C@H]4[C@](C)(CO)CCC[C@]34C)C(=O)OC)CCC[C@]2(C)[C@H]1CO[C@@H](C(=O)OC)[C@H](CC(=O)OC)C(=O)OC` was tested, and the IC50 was 4.3 µM.
